Measurements reported in patent publication US20230069886A1, “AROMATIC SULPHONAMIDES DERIVATIVES THAT INHIBITS PDI A3, THEIR SYNTHESIS AND USE” (Uniwersytet Jagiellonski, priority 2020, published 2023).
≈ marks a conversion by molar mass, not a printed value.

Experiments:
[1] = tested on: MCF-7; experiment: MTT antiproliferative assay, 48 h, MCF-7; type: cell-based, human; conditions: 48-hour exposition, read-out: Cytotoxicity, IC50, μM MCF-7
[2] = tested on: MCF-7; experiment: MTT antiproliferative assay, 72 h, with or without estradiol, MCF-7; type: cell-based, human
Method: (§1) Anticancer activity of selected compounds of invention, PDI A3-inhibitors has been also tested in vitro in antiproliferative assay in normoxic and hypoxic conditions as well in estrogen-stimulated cancer cells. In the experiment, cells were seeded on 96-well plates (Sarstedt, Germany) in appropriate culture medium at a density of 10^5 cells/mL 24 h before adding the tested compounds. Cells were treated with each compound in four concentrations in the range 0.1-100 μg/mL. […] After 72 h of compound treatment at 37° C., 5% CO2 humid atmosphere and in wo different oxygen level conditions: 21%—normal and <1%—hypoxia. In some experiments the MDA-MB-231 and MCF-7 cells were seeded with or without 200 nM estradiol and after 24 h the tested compounds were added. A previously described sulforhodamine B antiproliferative assay was used with minor modifications (Skehan P et al., 1990). Briefly, cells were fixed with 50 μL/well of 50% (w/v) trichloroacetic acid (Avantor Performance Materials, Gliwice, Poland). After 1 h incubation, plates were washed several times with tap water and 50 μL of 0.4% (w/v) solution of sulforhodamine B (Sigma-Aldrich, Germany) in 1% (v/v) acetic acid (Avantor Performance Materials, Gliwice, Poland) was added to each well. After 30 min incubation at room temperature, unbound dye was washed out with 1% (v/v) acetic acid, whereas bound dye was solubilized with 10 mM unbuffered TRIS (Avantor Performance Materials, Gliwice, Poland) solution. The entire procedure was performed using a BioTek EL-406 washing station (BioTek Instruments, USA). After additional 30 min, absorbance was read using a Biotek Hybrid H4 reader (BioTek Instruments, USA) at 540 nm wavelength. MTT assay was used alternatively for HL-60 cell line and in the experiment in which estrogens are added (specified in the table legend). Absorbance was measured using a Biotek Hybrid H4 reader at 570 nm wavelength for MTT assay.
(§2) Compounds at each concentration were tested in triplicate in a single experiment and each experiment was repeated at least three times independently. Results are presented as mean IC50±SD.

[3] = tested on: HT-1080; experiment: MTT antiproliferative assay, 48 h, HT-1080; type: cell-based, human; conditions: 48-hour exposition, read-out: Cytotoxicity, IC50, μM HT-1080
Method: Anticancer activity of compounds of invention, PDI A3-inhibitors has been tested in vitro in classical antiproliferative assay in various cancer cells lines. Monolayer tumor cell lines MDA-MB-231 (human mammary breast adenocarcinoma), MCF-7 (human breast adenocarcinoma, estrogen-positive), HT-1080 (human fibrosarcoma) and Caco-2 (human colon adenocarcinoma) were cultured in standard medium DMEM (Dulbecco's modified Eagle's medium) (“Sigma”) supplemented with 10% foetal bovine serum (“Sigma”). About 2000-4000 cells per well (depending on line nature) were placed in 96-well plates and after 24 h compounds were added to the wells. Untreated cells were used as a control. The plates were incubated for 48 h, 37° C., 5% CO2. The number of surviving cells was determined using 3-(4,5-dimethylthiazol-2-yl)-2,5-diphenyltetrazolinium bromide (MTT). MTT-test: after incubating culture medium was removed and 200 μL fresh medium with 20 μL MTT (2 mg/mL in HBSS) was added in each well of the plate. After incubation (3 hr., 37° C., 5% CO2), the medium with MTT was removed and 200 μL DMSO were added at once to each sample. The samples were tested at 540 nm on Thermo Scientific Multiskan EX microplate photometer. The half-maximal inhibitory concentration (IC50) of each compound was calculated using Graph Pad Prism® 3.0.

[4] = tested on: HL-60; experiment: MTT antiproliferative assay, 72 h, HL-60; type: cell-based, human; conditions: 72 hours exposition
Method: as §1, §2

[5] = tested on: MDA-MB-231; experiment: MTT antiproliferative assay, 48 h, MDA-MB-231; type: cell-based, human; conditions: 48-hour exposition, read-out: Cytotoxicity, IC50, μM MDA-MB-231
[6] = tested on: arterial thrombosis; experiment: In vivo models of arterial thrombosis; set-up: species or system rat or mice; conditions: FIG. 5
Method: To confirm antithrombotic activity of compounds of invention, inhibitors of PDIA3, pharmacological activity of selected compounds was tested in vivo in the rat or mice model of arterial thrombosis. Wistar rats were anaesthetized with pentobarbital (40 mg/kg, i.p.) and placed in a supine position on a heated (37° C.) operating table. Arterial thrombosis was induced by electrical stimulation of the right common carotid artery, as previously described (Kramkowski et al., 2012). Briefly, the anode, a stainless steel L-shaped wire, was inserted under the artery and connected to a constant current generator. The cathode was attached subcutaneously to the hind limb. The artery was stimulated (1 mA) for 10 min. Fifty-five minutes after the beginning of stimulation, the segment of the common carotid artery containing the formed thrombus was dissected and opened lengthwise, and the thrombus was completely removed and air-dried at room temperature for 24 h. Thrombus was then weighed in a blinded manner. Antithrombotic effects of compounds of invention in mice was analyzed using intravital fluorescence confocal microscopy as described previously (Hayashi T et al., 2008). […] Changes in fluorescence intensity were measured as described previously (Hayashi T et al., 2008, Kramkowski et al., 2002)

[7] = tested on: MDA-MB-231; experiment: MTT antiproliferative assay, 72 h, with or without estradiol, MDA-MB-231; type: cell-based, human
Method: as §1, §2

[8] = not pretreated with estradiol, 72 hours exposition, MTT
[9] = pretreated with 200 nM estradiol, 72 hours exposition, MTT

With `COC(=O)C1CN1S(=O)(=O)c1ccc2c(C=O)c(N(C)C)ccc2c1` (centres unmarked) [Compound C-3390, Methyl 1-[[6-(dimethylamino)-5-formyl-2-naphthyl]sulfonyl]aziridine-2-calboxylate] the IC50 [1] was 20 ± 0.3 µM, the “Lower sensitivity after treatment with estradiol in MCF-7” value ([2]; estradiol (200 nM), Table 4) was “not observed” and the “IC50 [μg/ml] MCF-7 normal” value [2, 8] was 3.2 ± 0.3 µg/mL (≈ 8.83 µM). The “IC50 [μg/ml] MCF-7 +estradiol” value [2, 9] was 3.4 ± 0.3 µg/mL (≈ 9.38 µM), the IC50 [3] was 7.9 ± 0.9 µM and the “IC50 [μg/ml] HL-60 normal” value [4] was 14.4 ± 0.7 µg/mL (≈ 39.7 µM). The IC50 [5] was 18 ± 0.1 µM, the “Anti-thrombotic effects in vivo” value [6] was “anti-thrombotic effects” and the “Sensitivity of MDA-MB-231 line after treatment with estradiol” value ([7]; estradiol (200 nM), Table 4) was “slightly lower sensitivity”. The “IC50 [μg/ml] MDA-MB-231 normal” value [7, 8] was 3.2 ± 0.2 µg/mL (≈ 8.83 µM) and the “IC50 [μg/ml] MDA-MB-231 +estradiol” value [7, 9] was 9.4 ± 3.5 µg/mL (≈ 25.9 µM).
